In patent US20070015733A1, “Aryl Phosphate Derivatives of d4T having Activity Against Resistant HIV Strains” (Parker Hughes Institute, priority 1998, published 2007):

What was measured:
[1] = tested on: AZT-sensitive HIV-1 (strain: HTLVIIIB); experiment: Inhibition of HIV-1 HTLVIIIB in PBMC, RT activity assays (Example 14); format: cell-based; details: Human immunodeficiency virus 1, PBMC
Procedure: The compounds, as well as AZT, were tested for their ability to inhibit HIV replication in peripheral blood mononuclear cells using previously described procedures (Zarling et. al., 1990 Nature 347:92; Erice et. al., 1993 Antimicrob. Agents Chemother. 37:835; Uckun et. al., 1998 Antimicrob. Agents Chemother. 42:383). […] Percent viral inhibition was calculated by comparing the RT activity values from the test substance-treated infected cells with RT values from untreated infected cells (i.e., virus controls).

[2] = Stability in plasma, whole blood, gastric fluid and intestinal fluid; format: in vitro ADME
Procedure: Ala-d4T-MP is stable both in plasma and in whole blood. […] This hypothesis is consistent with the formation of a significant amount of d4T after incubation of d4T-5′-[p-bromophenyl methoxyalaninyl phosphate] with a liver homogenate.
Orally administered d4T-5′-[p-bromophenyl methoxyalaninyl phosphate] also yielded Ala-d4T-MP and d4T as the major metabolites. […] This metabolite can be absorbed in the intestine and then further metabolized to yield d4T in the blood. The tmax and t1/2 values for d4T in mice were longer when derived from orally administered d4T-5′-[p-bromophenyl methoxyalaninyl phosphate] (42.4 minutes and 99.0 minutes, respectively) than from orally administered d4T (5 minutes and 18 minutes, respectively). The tmax value is higher but the t1/2 value is lower for orally administered d4T-5′-[p-bromophenyl methoxyalaninyl phosphate] compared to intravenously administered d4T-5′-[p-bromophenyl methoxyalaninyl phosphate]. […] However, the bioavailability of d4T metabolized from d4T-5′-[p-bromophenyl methoxyalaninyl phosphate] (48%) was lower than that of orally administered d4T (98%).

[3] = tested on: peripheral blood mononuclear cells; experiment: Microculture tetrazolium assay (MTA) cytotoxicity in PBMNC; details: viability of PBMC
Procedure: Percent inhibition of viral replication was calculated by comparing the p24 and RT activity values from the test substance-treated infected cells with those from untreated infected cells. In parallel, the cytotoxicity of the compounds was examined using a microculture tetrazolium assay (MTA) of cell proliferation, as described.in the Zarling, Enrice, and Uckun articles Supra).
Cellular Assays of Anti-HIV Activity and Cytotoxicity. […] Percent viral inhibition was calculated by comparing the RT activity values from the test substance-treated infected cells with RT values from untreated infected cells (i.e., virus controls).
Antiviral susceptibility assays. Phenotypic drug susceptibility studies of HIV-1 isolates and strains were performed by measuring the production of the p24 gag protein in peripheral blood mononuclear cells (PBMC) from seronegative healthy volunteers in the presence of increasing concentrations of the anti-HIV agent using the quantitative Coulter HIV-1 p24 antigen ezyme immunoassay (EIA) and HIV-1 p24 Antigen Kinetic Standard (Beckman Coulter), as previously described (Uckun, 1998, Antimicrobial Agents and Chemotherapy 37(4): 835-38). Informed consent was obtained from the blood donors according to DHHS guidelines using consent forms approved by the Institutional Review Board. In brief, PBMC were cultured for 72 h in RPMI 1640 medium (Gibco) supplemented with 20% (vol/vol) heat-inactivated fetal bovine serum, 5% human interleukin-2 (Zeptometrix), 2 mM L-glutamine, 25 mM HEPES, 2 g/L NaHCO3, 100 U/ml penicillin/streptomycin (Gibco), 50 μg/ml gentamicin (Gibco), and 5 μg/ml phytohemagglutinin-P (PHA-P) (Sigma) for 24-72 hours prior to exposure to HIV at a multiplicity of infection of 0.001-0.1 during a 1-h adsorbtion period at 37±1° C. in a humidified 5-7% CO2 atmosphere. Subsequently, cells were cultured in 96-well microtiter plates (100 μl/well; 2×10^6 cells/ml, triplicate wells) in the presence of the anti-HIV agents at 6-7 different concentrations ranging from 0.0001 μM to 100 μM, and 25 μL aliquots of culture supernatants were removed from the wells on day 6 after infection for p24 EIA, as previously described (Uckun, 1998, Antimicrobial Agents and Chemotherapy, 37(4):835-38). Controls included uninfected and untreated cells (background control) and infected but untreated (virus control) cells. The p24 EIA utilizes a murine monoclonal antibody to HIV core protein used to coat microwell strips to which the antigen present in the test culture supernatant samples binds. Percent inhibition of viral replication was calculated by comparing the p24 values from the test substance-treated infected cells with p24 values from untreated infected cells (i.e., virus controls). The IC50 values were determined using the Statview statistics program (SAS Institute, Inc.). In parallel, the effects of various treatments on cell viability were also examined as previously described (Uckun, 1998, Antimicrobial Agents and Chemotherapy, 42:383-388). In brief, noninfected PBMC were treated with each compound for 5 days under identical experimental conditions. A microculture tetrazolium assay (MTA) was performed to quantitate cellular proliferation (Uckun, 1998, Antimicrobial Agents and Chemotherapy, 42:383-388).
In parallel, the cytotoxicity of the compounds was examined using a microculture tetrazolium assay (MTA) of cell proliferation, as described (in the Zarling, Enrice, and Uckun articles Supra).

human T-cell line MT2 = experiment: Cytotoxicity in MT2 cells; format: cell-based; details: even at a 100 μM concentration
Source text: Dozens of mutant strains have been characterized as resistant to NNRTI compounds, including L1001, K103N, V106A, E138K, Y181C and Y188H/L. In particular, the Y181 C and K103N mutants may be the most difficult to treat, because they are resistant to most of the NNRTIs compounds that have been examined. […] These clinical HIV-1 isolates also harbor additional RT gene mutations conferring NRTI-resistance and display a zidovudine-resistant phenotype (see Table 11 and Table 12).

[4] = cited from earlier work
[5] = twice daily hard gelatin capsules 25-100 mg/kg; cumulative dose levels as high as […]; cited from earlier work

SMILES: Cc1cn([C@H]2C[C@H](N=[N+]=[N-])[C@@H](CO)O2)c(=O)[nH]c1=O [AZT, 3′-azido-3′-deoxythymidine]
- IC50 ([1]; Table 15, preliminary, first human source of PBMC): 7 nM
- IC50 ([1]; Table 16, AZT values in nM per footnote): 81.7 nM
- IC50 ([1]; Table 17, later analysis from a larger sample pool): 4 ± 1 nM

SMILES: COC(=O)C(C)NP(=O)(OC[C@@H]1C=C[C@H](n2cc(C)c(=O)[nH]c2=O)O1)Oc1ccc(Br)cc1 (some centres unmarked) [Compound 1c, d4T-5′-[p-bromo-phenylmethoxyalaninyl phosphate]]
- stability in gastric fluid ([2]; gastric fluid): stable in gastric fluid
- stability in intestinal fluid ([2]; intestinal fluid, forms Ala-d4T-MP): decomposes readily in intestinal fluid
- stability in plasma and whole blood ([2]; plasma or whole blood): readily metabolizes
- CC50 [3]: > 100 µM
- cytotoxicity in MT2 cells (human T-cell line MT2): without any evidence of cytotoxicity
- toxicity on daily administration ([4]; intraperitoneally or orally for up to 8 consecutive weeks, cumulative dose levels as high as 6.4 g/kg): not associated with any detectable toxicity
- acute or subacute toxicity ([4]; single intraperitoneal or oral bolus dose levels as high as 500 mg/kg): without any detectable acute or subacute toxicity
- tolerability of four-week treatment course [5]: very well tolerated
